Assay results taken from US20190275087A1, “EXPANSION AND DIFFERENTIATION OF STEM CELLS” (Allergan Pharmaceuticals International Limited, priority 2018, published 2019).

What was measured:
[1] = system: Human bone marrow-derived MSCs; experiment: MSC proliferation (crystal violet cell abundance); format: cell-based
Experimental: Human bone marrow-derived MSCs obtained from American Type Culture Collection (ATCC) were cultured in normal media, which consists of Alpha-Minimum Essential Medium (α-MEM) (Lonza) with 10% (v/v) FBS (Life Technologies) and 2.4 mM L-glutamine (Lonza), at 37° C. in a humidified normoxic incubator up to a maximum of 10 population doublings. Where indicated, the normal media was supplemented with 15 ng/mL IGF-1 (Life Technologies) and/or […] bFGF (Life Technologies), equivalent to the growth factor concentrations in the ATCC-recommended media. Cells were passaged once they reach 70-80% confluence.
Where indicated, tissue culture plastic wells were coated with 20 μg/mL recombinant human tropoelastin (Elastagen) or 2 μg/mL fibronectin (Sigma-Aldrich®) in PBS (10 mM phosphate, 150 mM NaCl, pH 7.4) at 4° C. overnight. The protein solution was removed, and wells were washed three times with PBS to remove unbound protein prior to cell seeding.
[…] To prevent protein adhesion on the tissue culture substrate, wells were pre-incubated with normal media for 5 hours to enable surface blocking by serum proteins prior to cell seeding in supplemented media.
(§1) Sub-confluent flasks of MSCs were treated with 0.05% (v/v) trypsin-EDTA (Sigma-Aldrich®) at 37° C. for 5 min to lift off adherent cells from the culture vessel. Trypsin was neutralized with two volumes of serum-containing growth media. Cells were centrifuged at 270 g for 5 min and resuspended in the required media. Cells were seeded at a density of 5000 cells/cm^2 on bare or protein-coated tissue culture plastic wells, in normal or supplemented media. Media was changed every 2 days. After specific time points, cells were fixed with 3% (v/v) formaldehyde at room temperature for 20 min, washed with PBS, then stained with 0.1% (w/v) crystal violet in 0.2 M MES buffer for 1 hour. Excess stain was washed off four times with reverse osmosis water. The retained stain was solubilized with 10% (v/v) acetic acid and sample absorbance values indicative of cell abundance were read at 570 nm. Sample absorbance values were subtracted by baseline values (corresponding to cell numbers in serum-free media, or cell numbers on day 1 post-seeding) and expressed as a fraction of the highest absorbance among all samples on day 7 post-seeding.

MSCs [2] = experiment: Flow cytometry of MSC surface marker expression; format: cell-based, Human; conditions: bare TCP, media with only this growth factor, 7 days post-seeding
Experimental: MSCs cultured for 5 or 7 days in various media formulations and on bare or protein-coated tissue culture wells were trypsinised and pelleted. The cell pellets were washed with 0.22 μm filtered FACS buffer (5% v/v FBS in PBS) and re-centrifuged at 270 g for 5 min. The cells were resuspended in FACS buffer to a concentration of 100,000 cells in 100 μL total volume, and probed for MSC marker expression using the Human Mesenchymal Stem Cell Verification Flow Kit (R&D Systems®). Isotype and unstained control samples were prepared using MSCs cultured in standard growth media on tissue culture plastic. Cells were analyzed using a BD™ Biosciences LSR II Flow Cytometer System. Singlet cells were determined by their forward scatter-to-side scatter and scatter height-to-width ratios, while viable cells were identified by exclusion of 1:20 propidium iodide. Only singlet, viable cells were analyzed for marker expression.

MSCs [3] = experiment: MSC attachment to substrate-bound tropoelastin (EDTA inhibition, cation add-back); format: cell-based, Human; conditions: 5 mM
Experimental: MSCs were seeded at a density of 1.5×10^5 cells/cm^2 on tropoelastin-coated wells in serum-free α-MEM containing 0-9 mM ethylenediaminetetraacetic acid (EDTA) (Sigma-Aldrich®). The cells were incubated for 1 hour at 37° C., then washed with PBS to remove unbound cells. Bound cells were fixed, stained and measured for absorbance at 570 nm as described for the proliferation assays. The percentage of cell attachment was determined relative to a set of standards with known cell numbers.
MSCs were washed with cation-free PBS, centrifuged at 270 g for 5 min, and resuspended in cation-free PBS. The cells were seeded at a density of 1.5×10^5 cells/cm^2 on tropoelastin-coated wells in the presence of 0-0.5 mM cation (Mg^2+, Ca^2+ or Mn^2+) and incubated for 45 min at 37° C. Bound cells were fixed and stained, and cell attachment was quantified as previously described.

MSCs [4] = experiment: MSC proliferation with integrin, FGFR, FAK and PKB/AKT inhibitors; format: cell-based, Human; conditions: for reduction of tropoelastin-mediated proliferation: downstream signaling inhibitor, 7 days
Experimental: as §1
To block specific integrin activity, up to 20 μg/mL of anti-αv or anti-αvβ3 integrin antibodies (Abcam®), or up to 1:250 dilution of anti-αvβ5 integrin antibody (Abcam®) was added to the media during MSC spreading or proliferation assays. […] An anti-β8 integrin (5 μg/mL) (Abcam®) or a non-specific mouse IgG (5 μg/mL) (Sigma-Aldrich®) were also included as negative antibody controls. […] The integrin and FGFR inhibitors were replenished during every media change.

MSCs [5] = experiment: MSC spreading with integrin-blocking antibodies; format: cell-based, Human; conditions: no antibody
Experimental: Cells were fixed and visualized by phase contrast microscopy with a Zeiss Axio Vert.A1 microscope. Images were taken on an AxioCam ICml monochrome camera. […] Cell spreading was quantified by counting the percentage of spread cells in each field of view. Three fields of view were obtained for each sample replicate.
To block specific integrin activity, up to 20 μg/mL of anti-αv or anti-αvβ3 integrin antibodies (Abcam®), or up to 1:250 dilution of anti-αvβ5 integrin antibody (Abcam®) was added to the media during MSC spreading or proliferation assays. Optimal inhibitory concentrations were selected for the anti-αv (5 μg/mL), anti-αvβ3 (5 μg/mL), and anti-αvβ5 (1:500 dilution) integrin antibodies. An anti-β8 integrin (5 μg/mL) (Abcam®) or a non-specific mouse IgG (5 μg/mL) (Sigma-Aldrich®) were also included as negative antibody controls. To block FGFR activity, up to 20 μM of the SU-5402 FGFR inhibitor (Sigma-Aldrich®) was added to the media during MSC proliferation. The integrin and FGFR inhibitors were replenished during every media change.

integrins on MSCs = experiment: cell-based or functional assay

recombinant human tropoelastin (Elastagen), sequence (P15502 other isoform, or with tags, fused parts or gaps limits assumed): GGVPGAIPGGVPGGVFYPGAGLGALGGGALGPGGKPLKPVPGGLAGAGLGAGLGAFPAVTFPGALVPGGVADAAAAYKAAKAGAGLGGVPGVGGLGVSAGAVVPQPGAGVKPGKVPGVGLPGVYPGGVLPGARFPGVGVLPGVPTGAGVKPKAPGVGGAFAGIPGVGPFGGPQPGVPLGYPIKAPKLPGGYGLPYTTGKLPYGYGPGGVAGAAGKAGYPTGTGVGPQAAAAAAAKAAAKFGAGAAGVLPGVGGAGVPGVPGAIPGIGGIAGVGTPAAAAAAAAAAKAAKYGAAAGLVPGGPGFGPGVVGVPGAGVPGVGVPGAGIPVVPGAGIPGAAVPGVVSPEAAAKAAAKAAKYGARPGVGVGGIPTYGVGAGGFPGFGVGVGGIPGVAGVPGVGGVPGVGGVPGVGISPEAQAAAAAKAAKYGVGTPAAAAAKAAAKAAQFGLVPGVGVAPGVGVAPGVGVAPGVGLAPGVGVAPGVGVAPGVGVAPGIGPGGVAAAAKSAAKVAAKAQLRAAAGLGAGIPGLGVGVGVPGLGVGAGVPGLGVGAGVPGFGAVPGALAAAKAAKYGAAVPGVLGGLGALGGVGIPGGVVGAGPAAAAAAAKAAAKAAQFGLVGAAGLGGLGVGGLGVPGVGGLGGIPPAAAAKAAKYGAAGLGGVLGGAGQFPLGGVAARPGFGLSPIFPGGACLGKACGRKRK

## IGF-1: insulin-like growth factor-1 (Life Technologies), media supplement [reference compound]
[1]; media supplementation with IGF-1 alone
  MSC numbers compared to normal media: did not increase MSC numbers
MSCs [2]
  cells expressing CD73: 89.1±0.1%
  cells positive for CD105: 83.9±0.7%

## O=C(O)CN(CCN(CC(=O)O)CC(=O)O)CC(=O)O [EDTA, ethylenediaminetetraacetic acid, reference compound]
MSCs [3]
  reduction of MSC binding to tropoelastin: 48.9±0.5%

## Nc1cc(N)c(N)cc1N [FAK inhibitor 14]
MSCs [4]
  reduction of tropoelastin-mediated proliferation: 50.7±2.0%

## CCCCCCCCCCCCCCCCCCOP(=O)([O-])OC1CC[N+](C)(C)CC1 [perifosine]
MSCs [4]
  reduction of tropoelastin-mediated proliferation: 21.3±0.5%

## fibronectin [reference compound]
MSCs [5]
  cell spreading on fibronectin: 92.5±2.6%
[1]; 20% reduction in serum, after 7 days
  decrease in MSC proliferation on coated surface following serum reduction: 15±0.1%
[1]; 40% decrease in serum, after 7 days
  inhibition of MSC proliferation on coated TCP compared to normal media: 25±1%
[1]; coated on the substratum
  coating concentration that promoted MSC expansion: ≥ 2 µg/mL
[1]; coated surface, until 3 days post-seeding
  serum reduction at which MSC numbers significantly decreased: completely absent
[1]; full serum media
  MSC propagation of fibronectin coating relative to tropoelastin coating: equally promoted
[1]; in solution in media, up to 7 days
  stimulation of MSC proliferation above normal media: did not trigger any proliferative response

## Cc1c[nH]c(/C=C2\C(=O)Nc3ccccc32)c1CCC(=O)O [SU-5402]
MSCs [4]; bFGF-supplemented media, over 7 days
  reduction in overall cell numbers compared to no inhibitor control: ≤ 78.9±0.7%

## bFGF: basic fibroblast growth factor (Life Technologies), media supplement [reference compound]
MSCs [2]
  cells positive for CD105: 92.9±5.9%

## recombinant human tropoelastin (Elastagen) (from UniProt P15502 27-724) (ligand)
Integrins on MSCs
  MSC adhesion to tropoelastin after addition of up to 0.5 mM Ca2+: 13.7%
  MSC adhesion to tropoelastin after addition of up to 0.5 mM Mg2+: 51.8%
  MSC adhesion to tropoelastin after addition of up to 0.5 mM Mn2+: 76.1%
  MSC adhesion to tropoelastin in a cation-free environment: 20%
  reduction of MSC attachment to substrate-bound tropoelastin in the presence of 5 mM EDTA: 48.9%
